The values that follow are results of earlier work, collected in PubChem BioAssay AID1259409 (Chemical Carcinogenesis Research Information System (CCRIS), 2018).

Molecules are shown by their SMILES.

The series has as its system rodent chemically induced tumor inhibition, incidence and multiplicity. Kind of series: CCRIS tumor inhibitor studies. The note with it: Dose [Inhibitor]: 0, Promoter: NONE USED.

For the compound `S=C=NCCc1ccccc1`, the “tumour outcome (control, treated, inhibition, significance)” value by setting is: (Carcinogen: BENZO[A]PYRENE, 50-32-8, 12 MG/KG/D FOR 6 CONSECUTIVE DAYS (STUDY DURATION: 7 MO), Route [Inhibitor]: GAVAGE, Species: MOUSE, Strain/Sex: STRAIN-A/FEMALE, Target Tissue: Type of Lesion: LUNG: TUMOR, Dose [Carcinogen]: 100 MG/KG ONCE AFTER FOURTH INHIBITOR DOSE) 100%, 100%, 0%, not significant; (Carcinogen: BENZO[A]PYRENE, 50-32-8, 12 MG/KG/D FOR 6 CONSECUTIVE DAYS (STUDY DURATION: 7 MO), Route [Inhibitor]: GAVAGE, Species: MOUSE, Strain/Sex: STRAIN-A/MALE, Target Tissue: Type of Lesion: LUNG: TUMOR, Dose [Carcinogen]: 100 MG/KG ONCE AFTER FOURTH INHIBITOR DOSE) 100%, 100%, 0%, not significant; (Carcinogen: BENZO[A]PYRENE, 50-32-8, 41 MG/KG/D FOR 6 CONSECUTIVE DAYS (STUDY DURATION: 7 MO), Route [Inhibitor]: GAVAGE, Species: MOUSE, Strain/Sex: STRAIN-A/FEMALE, Target Tissue: Type of Lesion: LUNG: TUMOR, Dose [Carcinogen]: 100 MG/KG ONCE AFTER FOURTH INHIBITOR DOSE) 100%, 100%, 0%, not significant; (Carcinogen: BENZO[A]PYRENE, 50-32-8, 41 MG/KG/D FOR 6 CONSECUTIVE DAYS (STUDY DURATION: 7 MO), Route [Inhibitor]: GAVAGE, Species: MOUSE, Strain/Sex: STRAIN-A/MALE, Target Tissue: Type of Lesion: LUNG: TUMOR, Dose [Carcinogen]: 100 MG/KG ONCE AFTER FOURTH INHIBITOR DOSE) 100%, 95%, 5%, not calculated; (Carcinogen: BENZO[A]PYRENE, 50-32-8, 82 MG/KG/D FOR 6 CONSECUTIVE DAYS (STUDY DURATION: 7 MO), Route [Inhibitor]: GAVAGE, Species: MOUSE, Strain/Sex: STRAIN-A/FEMALE, Target Tissue: Type of Lesion: LUNG: TUMOR, Dose [Carcinogen]: 100 MG/KG ONCE AFTER FOURTH INHIBITOR DOSE) 100%, 100%, 0%, not significant; (Carcinogen: BENZO[A]PYRENE, 50-32-8, 82 MG/KG/D FOR 6 CONSECUTIVE DAYS (STUDY DURATION: 7 MO), Route [Inhibitor]: GAVAGE, Species: MOUSE, Strain/Sex: STRAIN-A/MALE, Target Tissue: Type of Lesion: LUNG: TUMOR, Dose [Carcinogen]: 100 MG/KG ONCE AFTER FOURTH INHIBITION DOSE) 100%, 100%, 0%, not significant. The “tumour outcome (control, treated, inhibition, significance)” value (Carcinogen: BENZO[A]PYRENE, 50-32-8, 122 MG/KG/D FOR 6 CONSECUTIVE DAYS (STUDY DURATION: 7 MO), Route [Inhibitor]: GAVAGE, Species: MOUSE, Strain/Sex: STRAIN-A/FEMALE, Target Tissue: Type of Lesion: LUNG: TUMOR, Dose [Carcinogen]: 100 MG/KG ONCE AFTER FOURTH INHIBITOR DOSE) is recorded as 100%, 90%, 10%, not significant; the “tumour outcome (control, treated, inhibition, significance)” value (Carcinogen: BENZO[A]PYRENE, 50-32-8, 122 MG/KG/D FOR 6 CONSECUTIVE DAYS (STUDY DURATION: 7 MO), Route [Inhibitor]: GAVAGE, Species: MOUSE, Strain/Sex: STRAIN-A/MALE, Target Tissue: Type of Lesion: LUNG: TUMOR, Dose [Carcinogen]: 100 MG/KG ONCE AFTER FOURTH INHIBITOR DOSE) is on record as 100%, 95%, 5%, not significant; the “tumour outcome (control, treated, inhibition, significance)” value (Carcinogen: DIETHYLNITROSAMINE, 55-18-5, 82 MG/KG BW BY INTRAPERITONEAL INJECTION ON DAYS 13, 14 AND 15 OF AGE THEN 0.65 G/KG DIET FROM 21 TO 161 DAYS OF AGE, Route [Inhibitor]: INTRAPERITONEAL, ORAL, Species: MOUSE, Strain/Sex: C3H/MALE, Target Tissue: Type of Lesion: LIVER: ADENOMA, Dose [Carcinogen]: 4 MG/KG IN TRICAPRYLIN ONCE ON DAY 15 OF AGE) is recorded as 100%, 89%, 11%, not significant; the “tumour outcome (control, treated, inhibition, significance)” value (Carcinogen: DIETHYLNITROSAMINE, 55-18-5, N-METHYL-N-NITROSOUREA, 684-93-5, N-BUTYL-N-(4-HYDROXYBUTYL)NITROSAMINE, 3817-11-6, DIMETHY, Carcinogen: DIETHYLNITROSAMINE, 55-18-5, N-METHYL-N-NITROSOUREA, 684-93-5, N-BUTYL-N-(4-HYDROXYBUTYL)NITROSAMINE, 3817-11-6, DIMETHY, 0.1% IN THE DIET FOR 24 WK BEGINNING 1 DAY POST CARCINOGEN TREATMENT (STUDY DURATION: 28 WK), Route [Inhibitor]: ORAL, Species: RAT, Strain/Sex: F344/MALE, Target Tissue: Type of Lesion: LARGE INTESTINE: ADENOMA, Dose [Carcinogen]: 100 MG/KG BW DEN ONCE FOLLOWED BY 20 MG/KG BW MNU 4 TIMES AND 0.05% BBN IN DRINKING WATER DURING FIRST 2 WK THEN 40 MG/K) is 27%, 7%, 74%, not significant; the “tumour outcome (control, treated, inhibition, significance)” value (Carcinogen: DIETHYLNITROSAMINE, 55-18-5, N-METHYL-N-NITROSOUREA, 684-93-5, N-BUTYL-N-(4-HYDROXYBUTYL)NITROSAMINE, 3817-11-6, DIMETHY, Carcinogen: DIETHYLNITROSAMINE, 55-18-5, N-METHYL-N-NITROSOUREA, 684-93-5, N-BUTYL-N-(4-HYDROXYBUTYL)NITROSAMINE, 3817-11-6, DIMETHY, 0.1% IN THE DIET FOR 24 WK BEGINNING 1 DAY POST CARCINOGEN TREATMENT (STUDY DURATION: 28 WK), Route [Inhibitor]: ORAL, Species: RAT, Strain/Sex: F344/MALE, Target Tissue: Type of Lesion: LARGE INTESTINE: CARCINOMA, Dose [Carcinogen]: 100 MG/KG BW DEN ONCE FOLLOWED BY 20 MG/KG BW MNU 4 TIMES AND 0.05% BBN IN DRINKING WATER DURING FIRST 2 WK THEN 40 MG/K) was 7%, 0%, 100%, not significant; the “tumour outcome (control, treated, inhibition, significance)” value (Carcinogen: DIETHYLNITROSAMINE, 55-18-5, N-METHYL-N-NITROSOUREA, 684-93-5, N-BUTYL-N-(4-HYDROXYBUTYL)NITROSAMINE, 3817-11-6, DIMETHY, Carcinogen: DIETHYLNITROSAMINE, 55-18-5, N-METHYL-N-NITROSOUREA, 684-93-5, N-BUTYL-N-(4-HYDROXYBUTYL)NITROSAMINE, 3817-11-6, DIMETHY, 0.1% IN THE DIET FOR 24 WK BEGINNING 1 DAY POST CARCINOGEN TREATMENT (STUDY DURATION: 28 WK), Route [Inhibitor]: ORAL, Species: RAT, Strain/Sex: F344/MALE, Target Tissue: Type of Lesion: SMALL INTESTINE: ADENOMA, Dose [Carcinogen]: 100 MG/KG BW DEN ONCE FOLLOWED BY 20 MG/KG BW MNU 4 TIMES AND 0.05% BBN IN DRINKING WATER DURING FIRST 2 WK THEN 40 MG/K) was 33%, 50%, -52%, not significant. Also, the “tumour outcome (control, treated, inhibition, significance)” value (Carcinogen: DIETHYLNITROSAMINE, 55-18-5, N-METHYL-N-NITROSOUREA, 684-93-5, N-BUTYL-N-(4-HYDROXYBUTYL)NITROSAMINE, 3817-11-6, DIMETHY, Carcinogen: DIETHYLNITROSAMINE, 55-18-5, N-METHYL-N-NITROSOUREA, 684-93-5, N-BUTYL-N-(4-HYDROXYBUTYL)NITROSAMINE, 3817-11-6, DIMETHY, 0.1% IN THE DIET FOR 24 WK BEGINNING 1 DAY POST CARCINOGEN TREATMENT (STUDY DURATION: 28 WK), Route [Inhibitor]: ORAL, Species: RAT, Strain/Sex: F344/MALE, Target Tissue: Type of Lesion: SMALL INTESTINE: CARCINOMA, Dose [Carcinogen]: 100 MG/KG BW DEN ONCE FOLLOWED BY 20 MG/KG BW MNU 4 TIMES AND 0.05% BBN IN DRINKING WATER DURING FIRST 2 WK THEN 40 MG/K) was 7%, 14%, -100%, not significant; the “tumour outcome (control, treated, inhibition, significance)” value (Carcinogen: DIETHYLNITROSAMINE, 55-18-5, N-METHYL-N-NITROSOUREA, 684-93-5, N-BUTYL-N-(4-HYDROXYBUTYL)NITROSAMINE, 3817-11-6, DIMETHY, Carcinogen: DIETHYLNITROSAMINE, 55-18-5, N-METHYL-N-NITROSOUREA, 684-93-5, N-BUTYL-N-(4-HYDROXYBUTYL)NITROSAMINE, 3817-11-6, DIMETHY, 0.1% IN THE DIET FOR 24 WK BEGINNING 1 DAY POST CARCINOGEN TREATMENT (STUDY DURATION: 28 WK), Route [Inhibitor]: ORAL, Species: RAT, Strain/Sex: F344/MALE, Target Tissue: Type of Lesion: THYROID: CARCINOMA, Dose [Carcinogen]: 100 MG/KG BW DEN ONCE FOLLOWED BY 20 MG/KG BW MNU 4 TIMES AND 0.05% BBN IN DRINKING WATER DURING FIRST 2 WK THEN 40 MG/K) is recorded as 7%, 8%, -14%, not significant; the “tumour outcome (control, treated, inhibition, significance)” value (Carcinogen: DIETHYLNITROSAMINE, 55-18-5, N-METHYL-N-NITROSOUREA, 684-93-5, N-BUTYL-N-(4-HYDROXYBUTYL)NITROSAMINE, 3817-11-6, DIMETHY, Carcinogen: DIETHYLNITROSAMINE, 55-18-5, N-METHYL-N-NITROSOUREA, 684-93-5, N-BUTYL-N-(4-HYDROXYBUTYL)NITROSAMINE, 3817-11-6, DIMETHY, 0.1% IN THE DIET FOR 24 WK BEGINNING 1 DAY POST CARCINOGEN TREATMENT (STUDY DURATION: 28 WK), Route [Inhibitor]: ORAL, Species: RAT, Strain/Sex: F344/MALE, Target Tissue: Type of Lesion: URINARY BLADDER: PAPILLOMA, Dose [Carcinogen]: 100 MG/KG BW DEN ONCE FOLLOWED BY 20 MG/KG BW MNU 4 TIMES AND 0.05% BBN IN DRINKING WATER DURING FIRST 2 WK THEN 40 MG/K) is 7%, 33%, -371%, not significant; the “tumour outcome (control, treated, inhibition, significance)” value (Carcinogen: DIETHYLNITROSAMINE, 55-18-5, N-METHYL-N-NITROSOUREA, 684-93-5, N-BUTYL-N-(4-HYDROXYBUTYL)NITROSAMINE, 3817-11-6, DIMETHY, Carcinogen: DIETHYLNITROSAMINE, 55-18-5, N-METHYL-N-NITROSOUREA, 684-93-5, N-BUTYL-N-(4-HYDROXYBUTYL)NITROSAMINE, 3817-11-6, DIMETHY, 0.1% IN THE DIET FOR 24 WK BEGINNING 1 WK P0ST CARCINOGEN TREATMENT (STUDY DURATION: 28 WK), Route [Inhibitor]: ORAL, Species: RAT, Strain/Sex: F344/MALE, Target Tissue: Type of Lesion: URINARY BLADDER: CARCINOMA, Dose [Carcinogen]: 100 MG/KG BW DEN ONCE FOLLOWED BY 20 MG/KG BW MNU 4 TIMES AND 0.05% BBN IN DRINKING WATER DURING FIRST 2 WK THEN 40 MG/K) is reported as 7%, 33%, -371%, not significant.
